# Laboratory results taken from patent publication US9951026B2, “Heterocyclic vinyl autotaxin inhibitor compounds” (PharmAkea, Inc., priority 2013, dated 2018).
# Biological target: human autotaxin (Homo sapiens (Human), UniProt Q13822)
# Assay: Human Autotaxin Assay
# Format: biochemical
# Details: not given
# Experimental: ATX activity is assayed in concentrated conditioned media from Hep3B human hepatocellular carcinoma cells by measuring the amount of choline released from the substrate, lysophosphatidylcholine (LPC) as it is cleaved to LPA. Conditioned media is collected from confluent Hep3B cells and concentrated 20-fold using Centriprep-30 filter devices (Millipore). […] 100 μl of a color mix containing 4.5 mM 4-aminoantipyrine, 2.7 mM N-ethyl-N-(2-hydroxy-3-sulfopropyl)-m-toluidine, 21 units/ml horseradish peroxidase and 3 units/ml choline oxidase in 50 mM Tris, pH 8, 4.5 mM MgCl2 is added and the incubation continued for 15 minutes at room temperature before reading the absorbance at 555 nm.
row,Compound,IC50 [nM]
1,"N#C/C(=C\c1cn(Cc2ccc(F)cc2)c2nc(Cl)ccc12)c1ccc(C(=O)O)cc1 [Compound 3-3, (Z)-4-(2-(6-chloro-1-(4-fluorobenzyl)-1H-pyrrolo[2,3-b]pyridin-3-yl)-1-cyanovinyl)benzoic acid]",500 to 10000

# Same assay, conditions: ATX in concentrated conditioned media from Hep3B cells; choline released from LPC substrate; read-out: IC50
row,Compound,IC50 [nM]
1,"CCCn1cc(-n2c(C)c(/C=C(\C#N)c3ccc(C(=O)O)cc3)c3ccsc32)cn1 [Compound 5-1, (Z)-4-(1-cyano-2-(5-methyl-6-(1-propyl-1H-pyrazol-4-yl)-6H-thieno[2,3-b]pyrrol-4-yl)vinyl)benzoic acid]",> 10000
2,"COc1ccc(Cn2nc(/C=C(\C#N)c3ccc(C(=O)O)cc3)c3ccc(Cl)cc32)cn1 [Compound 1-7, (Z)-4-(2-(6-chloro-1-((6-methoxypyridin-3-yl)methyl)-1H-indazol-3-yl)-1-cyanovinyl)benzoic acid]",< 500
3,"COc1ccc(Cn2cc(/C=C(\C#N)c3ccc(C(=O)O)cc3)c3cccnc32)cn1 [Compound 3-2, (Z)-4-(1-cyano-2-(1-((6-methoxypyridin-3-yl)methyl)-1H-pyrrolo[2,3-b]pyridin-3-yl)vinyl)benzoic acid]",500 to 10000
4,"Cn1ccc(Cn2nc(/C=C(\C#N)c3ccc(C(=O)O)cc3)c3ccc(Cl)cc32)n1 [Compound 1-5, (Z)-4-(2-(6-chloro-1-((1-methyl-1H-pyrazol-3-yl)methyl)-1H-indazol-3-yl)-1-cyanovinyl)benzoic acid]",> 10000
5,"N#C/C(=C\c1cn(Cc2ccc(F)cc2)c2ncccc12)c1ccc(C(=O)O)cc1 [Compound 3-1, (Z)-4-(1-cyano-2-(1-(4-fluorobenzyl)-1H-pyrrolo[2,3-b]pyridin-3-yl)vinyl)benzoic acid]",< 500
6,"O=C(O)c1ccc(/C=C/c2nn(Cc3ccc(F)cc3)c3cc(Cl)ccc23)cc1 [Compound 1-8, (E)-4-(2-(6-chloro-1-(4-fluorobenzyl)-1H-indazol-3-yl)vinyl)benzoic acid]",500 to 10000
7,"N#C/C(=C\c1nn(Cc2cc(C(F)(F)F)cc(C(F)(F)F)c2)c2cc(Cl)ccc12)c1ccc(C(=O)O)cc1 [Compound 1-4, (Z)-4-(2-(1-(3,5-bis(trifluoromethyl)benzyl)-6-chloro-1H-indazol-3-yl)-1-cyanovinyl)benzoic acid]",500 to 10000
8,"N#C/C(=C\c1nn(Cc2ccc(F)cc2)c2cc(Cl)ccc12)c1ccc(C(=O)O)cc1 [Compound 1-1, (Z)-4-(2-(6-chloro-1-(4-fluorobenzyl)-1H-indazol-3-yl)-1-cyanovinyl)benzoic acid]",< 500
9,"COc1ccc(Cn2cc(/C=C(\C#N)c3ccc(C(=O)O)cc3)c3ccc(Cl)nc32)cn1 [Compound 3-4, (Z)-4-(2-(6-chloro-1-((6-methoxypyridin-3-yl)methyl)-1H-pyrrolo[2,3-b]pyridin-3-yl)-1-cyanovinyl)benzoic acid]",< 500
10,N#C/C(=C\c1nn(Cc2cc(Cl)cc(Cl)c2)c2cc(Cl)ccc12)c1ccc(C(=O)O)cc1 [Compound 1-3],500 to 10000
11,"N#C/C(=C\c1nn(Cc2ccccc2)c2cc(Cl)ccc12)c1ccc(C(=O)O)cc1 [Compound 1-2, (Z)-4-(2-(1-benzyl-6-chloro-1H-indazol-3-yl)-1-cyanovinyl)benzoic acid]",< 500
12,"N#C/C(=C\c1nn(Cc2ccc(Cl)nc2)c2cc(Cl)ccc12)c1ccc(C(=O)O)cc1 [Compound 1-6, (Z)-4-(2-(6-chloro-1-((6-chloropyridin-3-yl)methyl)-1H-indazol-3-yl)-1-cyanovinyl)benzoic acid]",< 500
